Six compounds from patent US11464785B2, “Treatment of addiction and impulse-control disorders using PDE7 inhibitors” (priority 2010, dated 2022) can be followed below.

For series [1], the system named is dopaminergic VTA neurons. The experiment in a line: Whole-cell current clamp recordings from rat VTA horizontal slices. Format: cell-based. The source says:
The reinforcing effects of nicotine are believed to result from its activation of dopaminergic neurons in the ventral tegmental area (VTA) (Pidoplichko V I et al., Nature 390:401-404 (1997); Liu L, et al., Nicotine persistently activates ventral tegmental area dopaminergic neurons via nicotinic acetylcholine receptors containing α4 and α6 subunits. Mol Pharmacol, 81(4):541-8 (2012)). The inventors sought to evaluate the anti-addictive potential of PDE7 inhibitors by studying their ability to modify basal and drug of abuse-induced changes in VTA dopamine activity by performing whole-cell current clamp recordings from rat VTA horizontal slices ex vivo. For this purpose nicotine was used as an example of drugs of abuse.
Dopaminergic neurons were identified by the presence of a large hyperpolarizing current. Johnson, S. W., et al., “Opioids excite dopamine neurons by hyperpolarization of local interneurons,”J. Neurosci 12:483-488 (1992).
An additional electrophysiology study was completed to evaluate the effect of the PDE7 inhibitor OMS182399 on VTA DA neuronal activity in the setting of cocaine, morphine or alcohol. The preparation of VTA slices was as described above in Example 8.
Drug-induced changes in firing rate were calculated by averaging the effects after drug administration (five minutes) and normalizing to the pre-drug baseline. All the numerical data are given as mean±s.e.m. Data were compared and analyzed by utilizing two-way ANOVA for repeated measures (treatment×time), or Student's t-test for repeated measures, when appropriate. Statistical analysis was performed by means of the GraphPad Prism program. The significance level was established at P<0.05.
The acute effect of OMS182399 was investigated on dopamine neurons of the VTA in a rat horizontal brain slice preparation containing the midbrain. Whole-cell current-clamp recordings were performed from VTA dopamine neurons.

Series [2] concerns binge eating model. The experiment in a line: Stress-induced binge eating of highly palatable food (HPF). Format: in vivo, female rats. To be noted: topiramate 60 mg/kg i.p. The source says: To mimic binge eating disorder in laboratory animals, a binge eating model was developed where binge eating is elicited by yo-yo dieting and stressful exposure to Highly Palatable Food (HPF). In this model, female rats are exposed to repeated cycles of restriction and a stressful procedure characterized by exposure of animals to HPF without the possibility of accessing it. This procedure elicits a selective increase of highly palatable food intake that is overconsumed during a very short period of time. As described below, using this model, endowed with significant predictive and face validity, the effect of PDE7 inhibitors on binge eating (one of the most significant forms of food addiction) was investigated.
Reinstatement of binge eating behavior has been obtained in experimental animals through a combination of repeated food restriction and stress. [Cifani et al, Psychopharmacology 204:113-125 (2009)]. For the present invention, stress-induced binge eating was tested as in Cifani.
Rats were housed in individual cages and were given chow and water ad libitum for two weeks prior to the experiment. […]
After one hour, animals were given HPF and ad libitum chow. Intake of HPF was measured after two hours.

Series [3] concerns rat model of cocaine addiction.
Description: Cocaine hydrochloride (obtained from the National Institute on Drug Abuse, Bethesda, Md.) was dissolved in sterile physiological saline at a concentration of 0.25 mg/0.1 mL. Drug or vehicle solution was infused at a volume of 0.1 mL over 4 seconds. […] OMS182401 was given intraperitoneally.
Male Wistar rats weighing between 180 and 200 g at the time of arrival in the lab were used. The rats were housed in groups of three in a humidity—(45-55%) and temperature-controlled (22 degrees C.) vivarium on a 12 h: 12 h reverse light/dark cycle (on, 17:00; off, 05:00) with ad libitum access to food and water. Experiments were conducted during the dark phase of the light/dark cycle. One week after arrival, rats were subjected to surgery, and a silastic catheter was implanted into the right jugular vein. The experimental stations consisted of operant conditioning chambers (Med Associate Inc.) enclosed in sound-attenuating, ventilated environmental cubicles. Cocaine was delivered by a plastic tube connected to the catheter before the beginning of the session. […] An IBM-compatible computer controlled the delivery of fluids and recording of the behavioral data.
Cocaine self-administration training continued until a stable baseline of responding was reached (less than 10% variation for 3 consecutive days calculated for each single rat). At this point, drug testing began.
Rats were treated with PDE7 inhibitors (0.0, 0.3, 1.0 and 3.0 mg/kg) given i.p. 12 hours and 1 hour before the beginning of the self-administration session. […] A 3-day interval was allowed between drug testing. During these intervals, cocaine self-administration was continued to re-establish baseline lever responses.
Cocaine self-administration training continued until a stable baseline of responding was reached (less than 10% variation for 3 consecutive days calculated for each single rat). At this point, drug testing began. The animals were injected with vehicle or drug 15 minutes before the test session.
In order to test the effect of raising cAMP levels through activation of DRD1 on cocaine self-administration, the DRD1 agonist SKF82958 was administered i.p. to rats trained to self-administer cocaine. […] SKF82958 was administered at 1.0 mg/kg. […] The long-access model was not evaluated in this case.
Rats were surgically implanted with jugular catheters and allowed to recover for one week. Animals then underwent daily six-hour (long-access) training sessions in which each press of the active lever triggered delivery of 0.25 mg cocaine. After one week, the ratio was increased so that five lever presses were required to receive the same amount of cocaine. The animal training continued for about six weeks. […] Reinforced responses were assessed over two hour periods.
Series [4] has as its system open field activity. In words: Open field activity model. Format: in vivo, wild type C57BL/6 mice. Particulars: C57BL/6 mice; SKF82958 1 mg/kg; FIG. 36. On the procedure:
In order to assess the ability of PDE7 inhibitors to enhance DRD1 signaling in vivo, the effects of the PDE7 inhibitor OMS182401 and the DRD1 agonist SKF82958, alone and in combination, were evaluated in an open field activity model using wild type C57BL/6 mice.

Series [5] concerns rat model of cocaine addiction. Particulars: in vivo.
In series [6] the test system is rat model of cocaine addiction. Format: in vivo, rats. As to the method: PDE7 inhibitors and DRD1 agonists were next tested for their effect on cocaine priming-induced relapse. Rats were trained to self-administer cocaine, as above, and were then exposed to extinction conditions. Cocaine was replaced with saline solution. […] Rats were treated with vehicle or agent and ten minutes later were administered cocaine. Lever pressing was counted for one hour following cocaine administration. […] Once again, administration of PDE7 inhibitors and dopamine D1 agonist had very different results in cocaine addicted animals.

Series [7] has as its system dopamine release in the nucleus accumbens. The experiment in a line: In vivo microdialysis of dopamine release in the nucleus accumbens. To be noted: nicotine 0.4 mg/kg sc. More on the design: species or system Male Wistar rats.
Description: Male Wistar rats (Harlan, Italy) weighing 275-300 g were housed in groups of six per cage with standard food (Morini, Italy) and water ad libitum, for at least five days in the central animal room under constant temperature (23° C.), humidity (60%) and a 12 hour light/dark cycle (light from 8 a.m. to 8 p.m.).
Concentric dialysis probes with a dialysing portion of 1.5 mm were prepared with AN69 (acrylonitrile sodium methallyl sulfonate copolymer) dialysis fiber (310 μm o.d. 220 μm i.d. Hospal, Dasco, Italy), according to the method of De Luca et al. (2007). Rats were anaesthetized with chloral hydrate (400 mg/kg i.p.) and placed in a stereotaxic apparatus. The scalp was incised and the skull leveled between lambda and bregma. […] Samples from each of the NAc shell and core were taken every 10 or 20 minutes (depending on the experiments) and analyzed.
Dialysate samples (10 or 20 μl) were injected into an HPLC equipped with a reverse phase column (C8 3.5 um, Waters, Mildford, Mass., USA) and a coulometric detector (ESA, Coulochem II, Bedford, Mass.) to quantify DA. […]
NAc shell and core dialysate DA was monitored for at least three hours. […] Dialysate DA was monitored for at least three hours after nicotine treatment.

On to `COC(=O)[C@H]1[C@@H](OC(=O)c2ccccc2)C[C@@H]2CC[C@H]1N2C` [cocaine], for which the “firing rate of VTA DA cells” value in series [1] (cocaine 1 μM, 5 min, n=7) is 36.4±9.1 % of basal firing rate.
Turning to `CCO` [Ethanol], the “firing rate of VTA DA cells” value in series [1] (Ethanol 100 mM, 5 min, n=6) is listed as 158.3±26.7 % of basal firing rate.
With `CC1(C)O[C@@H]2[C@@H](CO[C@@]3(COS(N)(=O)=O)OC(C)(C)O[C@@H]23)O1` [Topiramate], the “times of observation at which HPF intake was reduced, R+S group, highest dose” value in series [2] (OMS182056 3 mg/kg i.p., p<0.05) is “evident at all the times of observation”. For the same compound, the “HPF intake, restricted and stressed (R+S) group” value in series [2] (rats, two hours, OMS182401 3.0 mg/kg i.p., OMS182056 1.0 and 3.0 mg/kg i.p., FIGS. 23D, 24D, 25D) is listed as “reduced HPF intake only in the R+S group”.
With `Br.C=CCN1CCc2c(cc(O)c(O)c2Cl)C(c2ccccc2)C1` (racemic) [SKF82958, (±)-6-Chloro-7,8-dihydroxy-3-allyl-1-phenyl-2,3,4,5-tetrahydro-1H-3-benzazepine hydrobromide], the “behavior of animals given the agent with cocaine” value in series [3] (rat, in vivo, ip) was “exhibited significantly abnormal behavior and were extremely aggressive”. Also, in series [3] (rats, 2-hour sessions, OMS182401 15 minutes before session (FIG. 3), SKF82958 1.0 mg/kg i.p. (FIG. 4)), the “cocaine self-administration, short-access model” value is listed as “significantly reduced cocaine self-administration in the short-access model”. In series [3] (rats, short-access, i.p.), the “cocaine self-administration, first hour after treatment” value was “a significant reduction in self-administration was observed at both doses” and the “cocaine self-administration, two hours after treatment” value was “the trend of self-administration reduction was non-significant”. The “open-field activity, single agents” value in series [4] is “stimulated open-field activity at 1 mg/kg”. In addition, in series [1] (30 nM OMS182401 alone or 1 uM SKF82958 alone), the “nicotine-induced activation of VTA neurons, single agents at low concentration” value was “ineffective”. Moreover, in series [1] (OMS182401, SKF82958 at 3.0 and 10.0 uM, FIG. 29A), the “spontaneous firing rate of dopaminergic VTA neurons” value is reported as “a similar effect was observed”. In addition, in series [5], the “lever pressing when administered on its own (addictive properties)” value is “Neither agent caused increased lever pressing”. Besides, the “behavior of treated animals in cocaine priming test” value in series [6] (rat, in vivo) is “exhibited significantly abnormal behavior”. The “cocaine priming-induced lever pressing” value in series [6] (rats, agent ten minutes before cocaine, lever pressing for one hour, FIGS. 13 and 14) is on record as “significantly reduced lever pressing induced by cocaine priming”.
With `CN1CCC[C@H]1c1cccnc1` [nicotine], the “DA release in the NAc shell” value in series [7] is on record as “increases DA release in the NAc shell”.
In the case of `CN1CC[C@]23c4c5ccc(O)c4O[C@H]2[C@@H](O)C=C[C@H]3[C@H]1C5` [morphine], in series [1] (morphine, 3 min, n=7), the “firing rate of VTA DA cells” value is 224.4±19.5 % of basal firing rate.
